Patent US20260007613A1, “LONG-ACTING LOW-TOXICITY NOVEL CATIONIC LIPID COMPOUNDS AND COMPOSITION THEREOF” (BEIJING YOUCAREKECHUANG PHARMACEUTICAL TECHNOLOGY CO., LTD., priority 2023, published 2026)
Values joined by “and” are separate entries in the source; they are usually repeats but may differ in a detail not shown here. Equal values may be shown once.

Key:
[1] = Particle size and polydispersity index (PDI) of lipid nanoparticles by dynamic light scattering; assay type: physicochemical; settings: LNP formulation prepared from the cationic lipid, 25° C.
Experimental: The particle size and polydispersity index (PDI) were determined by dynamic light scattering using Malvern laser particle size analyzer.
10 μL of the liposome solution was weighed, diluted to 1 mL with RNase-free deionized water, and added to the sample pool. Each sample was measured in triplicate. The measurement conditions were: […] scattering angle, and 25° C.

[2] = system: 293T cells; assay: Cell survival rate determination (CCK-8); assay type: cell-based
Procedure, shortened: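 293T cells plated at 10,000/well (96-well), adhered overnight, then exposed 24 h to Fluc-mRNA LNP (cationic:neutral:structured:PEG-lipid 49:10:39.5:1.5) or Lipofectamine 3000. Viability by CCK-8, 1 h incubation, absorbance at 450 nm.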

[3] = system: 293T cells; assay: Fluorescent detection of Fluc-mRNA (cell transfection efficiency of LNP formulations); assay type: cell-based
Procedure, shortened: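 293T cells were seeded at 10,000/well and cultured overnight, then given LNP carrying […] Fluc-mRNA (cationic:neutral:structured:polymer-conjugated lipid 49:10:39.5:1.5 molar) for 24 h. Luminescence was developed with […] and imaged on IVIS.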

[4] = system: female BALB/C mice; assay: Live imaging in mice: protein expression of Fluc-mRNA delivered by LNP formulations; assay type: in vivo; settings: for average radiation intensity, times that of ALC-0315: comparator ALC-0315; for average radiation intensity, times that of HHMA: comparator HHMA; for average radiation intensity, times that of SM-102: comparator SM-102; for expression of mRNA in mice, times that of YK-302: comparator YK-302; for expression amount, times that of YK-309: comparator YK-309; for expression amount, times that of YK-313: comparator YK-313; for expression amount, times that of YK-321: comparator YK-321; for average radiation intensity, times that of compound 21: comparator compound 21; for average radiation intensity, times that of compound 23: comparator compound 23
Procedure, shortened: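 Female BALB/C mice (4-6 weeks, 17-19 g) received LNP-formulated Fluc-mRNA […] intramuscularly. At 6 h, 24 h, 48 h and 7 d, luciferase substrate given intraperitoneally, and after 5 min average radiance measured by IVIS whole-body imaging.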

## CCCCCCCCC(CCCCCCCC)COC(=O)CCCCCN(CCCCCC(=O)OCC(CCCCCCCC)CCCCCCCC)C[C@H](O)CN(CC)CCO [YK-312, (S)-bis(2-octyldecyl)-6,6′-((2-hydroxy-3-((2-hydroxyethyl)(ethyl)amino)propyl)azanediyl)dihexanoate]
[1]
  PDI (%): 33.4%
  Particle size (nm): 184 nm
[2]; LNP formulation of Fluc-mRNA, 24 hours, CCK-8
  Cell survival rate (%): 76.96%
[2]; difference of survival rates, comparator ALC-0315
  cell survival rate higher than ALC-0315: 25.93%
[2]; difference of survival rates, comparator HHMA
  cell survival rate higher than HHMA: 10.49%
[2]; difference of survival rates, comparator Lipofectamine 3000
  cell survival rate higher than Lipofectamine 3000: 51.95%
[2]; difference of survival rates, comparator SM-102
  cell survival rate higher than SM-102: 7.51%
[2]; difference of survival rates, comparator YK-301
  cell survival rate higher than YK-301: 24.00%
[2]; difference of survival rates, comparator YK-302
  cell survival rate higher than YK-302: 60.53%
[2]; difference of survival rates, comparator YK-303
  cell survival rate higher than YK-303: 13.64%
[2]; difference of survival rates, comparator YK-304
  cell survival rate higher than YK-304: 42.80%
[2]; difference of survival rates, comparator YK-306
  cell survival rate higher than YK-306: 34.77%
[2]; difference of survival rates, comparator YK-307
  cell survival rate higher than YK-307: 15.82%
[2]; difference of survival rates, comparator YK-308
  cell survival rate higher than YK-308: 5.97%
[2]; difference of survival rates, comparator YK-309
  cell survival rate higher than YK-309: 45.35%
[2]; difference of survival rates, comparator YK-311
  cell survival rate higher than YK-311: 6.90%
[2]; difference of survival rates, comparator YK-313
  cell survival rate higher than YK-313: 8.03%
[2]; difference of survival rates, comparator YK-314
  cell survival rate higher than YK-314: 9.08%
[2]; difference of survival rates, comparator YK-315
  cell survival rate higher than YK-315: 5.68%
[2]; difference of survival rates, comparator YK-316
  cell survival rate higher than YK-316: 6.43%
[2]; difference of survival rates, comparator YK-317
  cell survival rate higher than YK-317: 17.78%
[2]; difference of survival rates, comparator YK-320
  cell survival rate higher than YK-320: 5.89%
[2]; difference of survival rates, comparator YK-321
  cell survival rate higher than YK-321: 4.62%
[2]; difference of survival rates, comparator compound 21
  cell survival rate higher than compound 21: 6.75%
[2]; difference of survival rates, comparator compound 23
  cell survival rate higher than compound 23: 5.46%
[3]; LNP formulation of Fluc-mRNA, 96-well plate, 24 hours
  Relative light unit (RLU): 20148450 RLU
[3]; RLU of YK-305 / RLU of the lipid of the line
  Multiples (YK-305): 1.36
[3]; RLU of YK-310 / RLU of the lipid of the line
  Multiples (YK-310): 1.28
[3]; RLU of YK-312 / RLU of the lipid of the line
  Multiples (YK-312): 1.00
[3]; RLU of YK-318 / RLU of the lipid of the line, Tables 5, 7, 11
  Multiples (YK-318): 0.56
[3]; RLU of YK-319 / RLU of the lipid of the line, Tables 5, 7, 11
  Multiples (YK-319): 1.21
[3]; RLU of the lipid / RLU of SM-102, times that of SM-102
  Ratio relative to SM-102: 12.56
[3]; comparator ALC-0315
  cell transfection efficiency, times that of ALC-0315: 9.91 times
[3]; comparator HHMA
  cell transfection efficiency, times that of HHMA: 10.04 times
[3]; comparator Lipofectamine 3000
  cell transfection efficiency, times that of Lipofectamine 3000: 16.99 times
[3]; comparator YK-009
  cell transfection efficiency, times that of YK-009: 3.94 times
[3]; comparator YK-301
  cell transfection efficiency, times that of YK-301: 23.92 times
[3]; comparator YK-302
  cell transfection efficiency, times that of YK-302: 725.34 times
[3]; comparator YK-303
  cell transfection efficiency, times that of YK-303: 32.17 times
[3]; comparator YK-304
  cell transfection efficiency, times that of YK-304: ~900 times and 974.01 times
[3]; comparator YK-306
  cell transfection efficiency, times that of YK-306: 9.17 times
[3]; comparator YK-307
  cell transfection efficiency, times that of YK-307: 4.42 times
[3]; comparator YK-308
  cell transfection efficiency, times that of YK-308: 4.00 times
[3]; comparator YK-309
  cell transfection efficiency, times that of YK-309: ~160 times and 160.71 times
[3]; comparator YK-311
  cell transfection efficiency, times that of YK-311: 10.26 times
[3]; comparator YK-313
  cell transfection efficiency, times that of YK-313: 23.25 times
[3]; comparator YK-314
  cell transfection efficiency, times that of YK-314: 36.81 times
[3]; comparator YK-315
  cell transfection efficiency, times that of YK-315: 12.69 times
[3]; comparator YK-316
  cell transfection efficiency, times that of YK-316: 4.19 times
[3]; comparator YK-317
  cell transfection efficiency, times that of YK-317: 5.59 times
[3]; comparator YK-320
  cell transfection efficiency, times that of YK-320: 7.45 times
[3]; comparator YK-321
  cell transfection efficiency, times that of YK-321: 14.36 times
[3]; comparator compound 21
  cell transfection efficiency, times that of compound 21: 14.07 times
[3]; comparator compound 23
  cell transfection efficiency, times that of compound 23: 14.86 times
[4]; 6 h
  average radiation intensity, times that of ALC-0315: 9.27 times
  average radiation intensity, times that of HHMA: 12.30 times
  average radiation intensity, times that of SM-102: 11.42 times
  expression of mRNA in mice, times that of YK-302: 549.37 times
  expression amount, times that of YK-309: 121.95 times
  expression amount, times that of YK-313: 18.11 times
  expression amount, times that of YK-321: 15.54 times
  average radiation intensity, times that of compound 21: 13.12 times
  average radiation intensity, times that of compound 23: 13.59 times
[4]; 6 h after intramuscular injection
  average radiation intensity: 8009850
[4]; 24 h
  average radiation intensity, times that of ALC-0315: 11.96 times
  average radiation intensity, times that of HHMA: 19.00 times
  average radiation intensity, times that of SM-102: 18.91 times
  expression of mRNA in mice, times that of YK-302: 575.97 times
  expression amount, times that of YK-309: 135.46 times
  expression amount, times that of YK-313: 21.82 times
  expression amount, times that of YK-321: 22.51 times
  average radiation intensity, times that of compound 21: 20.74 times
  average radiation intensity, times that of compound 23: 21.80 times
[4]; 24 h after intramuscular injection
  average radiation intensity: 2278520
[4]; 48 h
  average radiation intensity, times that of ALC-0315: 20.43 times
  average radiation intensity, times that of HHMA: 24.98 times
  average radiation intensity, times that of SM-102: 24.98 times
  expression of mRNA in mice, times that of YK-302: 793.37 times
  expression amount, times that of YK-309: 124.13 times
  expression amount, times that of YK-313: 31.82 times
  expression amount, times that of YK-321: 22.24 times
  average radiation intensity, times that of compound 21: 26.25 times
  average radiation intensity, times that of compound 23: 24.55 times
[4]; 48 h after intramuscular injection
  average radiation intensity: 813200
[4]; 7 d
  average radiation intensity, times that of ALC-0315: 14.97 times
  average radiation intensity, times that of HHMA: 17.97 times
  average radiation intensity, times that of SM-102: 15.93 times
  expression of mRNA in mice, times that of YK-302: 274.74 times
  expression amount, times that of YK-309: 84.00 times
  expression amount, times that of YK-313: 32.61 times
  expression amount, times that of YK-321: 16.02 times
  average radiation intensity, times that of compound 21: 16.37 times
  average radiation intensity, times that of compound 23: 16.91 times
[4]; 7 d after intramuscular injection
  average radiation intensity: 105500
